Source: patent US4007179A, “Oxoindanylpropionic acids and process for the preparation thereof” (Sankyo Company Limited, priority 1975, dated 1977)

What was measured:
Assay type in all cases: in vivo
[1] = Analgesic activity: thermal pain test in rats; details: Rattus norvegicus, po, read-out: ID50 Analgesic
[2] = Antipyretic activity: TTG-induced fever test in guinea pigs; details: Cavia porcellus, po, read-out: ID50 Antipyretic
Text: Antipyretic activity Tested by TTG-induced fever test in guinea pigs [ modified methodof S. Kobayashi, H. Takagi; Jap.

[3] = Anti-inflammatory activity: carrageenin edema test in rats; details: Rattus norvegicus, po, read-out: ID50 Anti-inflammatory
Text: Anti-inflammatory activity
Tested by carrageenin edema test in rats [C.

[4] = TTG-induced fever test in guinea pigs

In the case of `CC(=O)Oc1ccccc1C(=O)O` [Acetylsalicylic acid, reference compound], the ED50 [1] is reported as 81 mg/kg, the ED50 [2] is reported as 194 mg/kg and the ED50 [3] is reported as 133 mg/kg.
Compound `CC(C(=O)O)c1ccc2c(c1)CC(C(C)C)C2` (stereo not drawn) [2-(2-Isopropylindan-5-yl)propionic acid] has an ED50 ([1]; thermal pain test in rats) of 2.5 mg/kg, an ED50 [2, 4] of 1.8 mg/kg and an ED50 ([3]; carrageenin edema test in rats) of 7.1 mg/kg.
With `CCC1Cc2ccc(C(C)C(=O)O)cc2C1` (stereo not drawn) [2-(2-Ethylindan-5-yl)propionic acid] the ED50 ([1]; thermal pain test in rats) was 10.5 mg/kg, the ED50 [2, 4] was 1.7 mg/kg and the ED50 ([3]; carrageenin edema test in rats) was 10.3 mg/kg.
